One may read the Ki as the equilibrium dissociation constant of an inhibitor or competing ligand from its target. Broadly, the IC50 is the concentration that gives 50% inhibition. One may read the CC50 as the concentration at which the toxic effect on the cells reaches its halfway point. The term inhibition denotes the drop in the measured response relative to a control, in per cent.

Experimental findings from ChEMBL document CHEMBL3632586, “Designing, synthesis of selective and high-affinity chalcone-benzothiazole hybrids as Brugia malayi thymidylate kinase inhibitors: In vitro validation and docking studies” (Eur J Med Chem, 2015) are described below.

In brackets after ≈: the same amount, converted by molar mass.

The nature of data set [1]: Inhibition of recombinant Brugia malayi TMK using dTMP as substrate by pyruvate kinase/lactate dehydrogenase coupled assay.
The test system of data set [2] is Brugia malayi. In words: Antifilarial activity against adult Brugia malayi assessed as motility reduction after 1 hr by microscopic analysis. In kind it is functional, organism-based.
In data set [3] the test system is Brugia malayi. In words: Antifilarial activity against Brugia malayi microfilariae assessed as motility reduction after 1 hr by microscopic analysis. Type of data set: functional, organism-based.
The nature of data set [4]: Cytotoxicity against African green monkey Vero cells after 72 hrs by resazurin dye-based fluorometric analysis. Type of data set: cell-based. Conditions: chlorocebus sabaeus.
Data set [5] in a line: Therapeutic index, ratio of CC50 for monkey VERO cells to IC50 for adult Brugia malayi. Conditions: for selectivity ratio: Vero cells, read-out: Ratio CC50/IC50. In kind it is cell-based.
A short description of data set [6]: Therapeutic index, ratio of CC50 for monkey VERO cells to IC50 for Brugia malayi microfilariae. To be noted: for selectivity ratio: Vero cells, read-out: Ratio CC50/IC50. In kind it is cell-based.
Data set [7] deals with Brugia malayi. The data set can be described thus: Antifilarial activity against adult Brugia malayi assessed as reduction in viability at 5 uM/ml after 24 to 48 hrs by MTT assay. In kind it is functional. For orientation: Tetrazolium assays rely on reduction of a dye to a coloured formazan, in cell work by metabolically active cells.
The subject of data set [8] is Brugia malayi. In words: Antifilarial activity against adult Brugia malayi assessed as reduction in viability at 2.5 uM/ml after 24 to 48 hrs by MTT assay. Type of data set: functional.
Data set [9] has as its system Brugia malayi. In words: Antifilarial activity against adult Brugia malayi assessed as reduction in viability at 1.25 uM/ml after 24 to 48 hrs by MTT assay. In kind it is functional.
The subject of data set [10] is Brugia malayi. In words: Antifilarial activity against adult Brugia malayi assessed as reduction in viability at 0.625 uM/ml after 24 to 48 hrs by MTT assay. In kind it is functional.
Data set [11] relates to Brugia malayi. The data set can be described thus: Antifilarial activity against adult Brugia malayi assessed as motility reduction at 5 uM/ml after 1 hr by microscopic analysis. Type of data set: functional.
The subject of data set [12] is Brugia malayi. The data set can be described thus: Antifilarial activity against adult Brugia malayi assessed as motility reduction at 2.5 uM/ml after 1 hr by microscopic analysis. Type of data set: functional.
Data set [13] has as its system Brugia malayi. The data set can be described thus: Antifilarial activity against adult Brugia malayi assessed as motility reduction at 1.25 uM/ml after 1 hr by microscopic analysis. In kind it is functional.
Data set [14] concerns Brugia malayi. The data set can be described thus: Antifilarial activity against adult Brugia malayi assessed as motility reduction at 0.625 uM/ml after 1 hr by microscopic analysis. In kind it is functional.
In data set [15] the test system is Brugia malayi. The data set can be described thus: Antifilarial activity against Brugia malayi microfilariae assessed as motility reduction at 5 uM/ml after 1 hr by microscopic analysis. Type of data set: functional.
In data set [16] the test system is Brugia malayi. The data set can be described thus: Antifilarial activity against Brugia malayi microfilariae assessed as motility reduction at 2.5 uM/ml after 1 hr by microscopic analysis. Type of data set: functional.
The test system of data set [17] is Brugia malayi. In words: Antifilarial activity against Brugia malayi microfilariae assessed as motility reduction at 1.25 uM/ml after 1 hr by microscopic analysis. In kind it is functional.
Data set [18] deals with Brugia malayi. The data set can be described thus: Antifilarial activity against Brugia malayi microfilariae assessed as motility reduction at 0.625 uM/ml after 1 hr by microscopic analysis. Type of data set: functional.
Data set [19] deals with Brugia malayi. The data set can be described thus: Antifilarial activity against adult Brugia malayi assessed as reduction in viability at 10 uM/ml after 24 to 48 hrs by MTT assay. Type of data set: functional.
For data set [20], the system named is Brugia malayi. The data set can be described thus: Antifilarial activity against adult Brugia malayi assessed as motility reduction at 10 uM/ml after 1 hr by microscopic analysis. In kind it is functional.
Data set [21] relates to Brugia malayi. In words: Antifilarial activity against Brugia malayi microfilariae assessed as motility reduction at 10 uM/ml after 1 hr by microscopic analysis. Type of data set: functional.
In data set [22] the test system is Brugia malayi. In words: Antifilarial activity against adult Brugia malayi assessed as reduction in viability at 0.6 uM/ml after 24 to 48 hrs by MTT assay. In kind it is functional, organism-based.
Data set [23] has as its system Brugia malayi. The data set can be described thus: Antifilarial activity against adult Brugia malayi assessed as reduction in viability at 0.3 uM/ml after 24 to 48 hrs by MTT assay. In kind it is functional, organism-based.
In data set [24] the test system is Brugia malayi. The data set can be described thus: Antifilarial activity against adult Brugia malayi assessed as reduction in viability at 0.15 uM/ml after 24 to 48 hrs by MTT assay. Type of data set: functional, organism-based.
For data set [25], the system named is Brugia malayi. The data set can be described thus: Antifilarial activity against adult Brugia malayi assessed as motility reduction at 0.6 uM/ml after 1 hr by microscopic analysis. In kind it is functional, organism-based.
In data set [26] the test system is Brugia malayi. In words: Antifilarial activity against adult Brugia malayi assessed as motility reduction at 0.3 uM/ml after 1 hr by microscopic analysis. In kind it is functional, organism-based.
The subject of data set [27] is Brugia malayi. In words: Antifilarial activity against adult Brugia malayi assessed as motility reduction at 0.15 uM/ml after 1 hr by microscopic analysis. Type of data set: functional, organism-based.
In data set [28] the test system is Brugia malayi. In words: Antifilarial activity against Brugia malayi microfilariae assessed as motility reduction at 0.6 uM/ml after 1 hr by microscopic analysis. Type of data set: functional, organism-based.
The test system of data set [29] is Brugia malayi. In words: Antifilarial activity against Brugia malayi microfilariae assessed as motility reduction at 0.3 uM/ml after 1 hr by microscopic analysis. Type of data set: functional, organism-based.
In data set [30] the test system is Brugia malayi. In words: Antifilarial activity against Brugia malayi microfilariae assessed as motility reduction at 0.15 uM/ml after 1 hr by microscopic analysis. Type of data set: functional, organism-based.

Take `CC(C)c1cc(/C=N/Nc2nc3ccccc3s2)cc(/C=C/C(=O)c2cccs2)c1O`: the Ki in data set [1] stood at 2.02 µM. Also, the results for the IC50 in the data set on Brugia malayi [2] and in the data set with Brugia malayi [3] were 2.12 µM and 1630 nM, respectively. In addition, the MIC in the data set on Brugia malayi [2] and with Brugia malayi [3] was 5 µM (≈ 2.24 µg/mL) throughout. In addition, in data set [4], the CC50 at 72 h is 95.3 µM. The figures for the selectivity ratio in data set [5] and in data set [6] were 44.9 and 58.5, respectively. Besides, the results for the inhibition at 5 µM in the data set on Brugia malayi [7], with Brugia malayi [11] and in the data set on Brugia malayi [15] were 85%, 100% and 100%, respectively. Also, the inhibition at 2.5 µM is 40.3% in the data set on Brugia malayi [8], 50% with Brugia malayi [12] and 75% with Brugia malayi [16]. Moreover, the inhibition at 1.25 µM with Brugia malayi [9] stood at 9.3%; in the data set with Brugia malayi [13], 1%; in the data set on Brugia malayi [17], 50%. The inhibition at 0.625 µM in the data set on Brugia malayi [10] amounted to 8.7%; in the data set on Brugia malayi [14] it was 1%; in the data set with Brugia malayi [18] it was 1%.
As to `CC(C)(C)c1cc(/C=N/Nc2nc3ccccc3s2)cc(/C=C/C(=O)c2ccccc2)c1O`, the Ki in data set [1] was found to be 20.3 µM.
The same measure, in the same setting: in the case of `Cc1ccc(C(=O)/C=C/c2cc(/C=N/Nc3nc4ccccc4s3)cc(C(C)(C)C)c2O)cc1` it was 4.69 µM.
With `CCc1cc(/C=N/Nc2nc3ccccc3s2)cc(/C=C/C(=O)c2ccccc2)c1O`, in data set [1], the Ki stood at 2.49 µM. For the same molecule, the results for the IC50 in the data set on Brugia malayi [2] and with Brugia malayi [3] were 4.34 µM and 2640 nM, respectively. Also, the MIC with Brugia malayi [2] and in the data set on Brugia malayi [3] was 10 µM (≈ 4.28 µg/mL) throughout. For the same molecule, in [4], it took 48.6 µM to reach half-maximal cytotoxicity (CC50 at 72 h). Further, the selectivity ratio amounted to 11.2 in [5] and 18.4 in [6]. Besides, the inhibition at 10 µM in the data set on Brugia malayi [19] stood at 90.4%; in the data set with Brugia malayi [20], 100%; in the data set with Brugia malayi [21], 100%. The inhibition at 5 µM with Brugia malayi [7] was 48%; with Brugia malayi [11], 50%; with Brugia malayi [15] it was 75%. In addition, the values for the inhibition at 2.5 µM with Brugia malayi [8], with Brugia malayi [12] and with Brugia malayi [16] were 30%, 1% and 75%, respectively. Further, the inhibition at 1.25 µM was determined as 10.5% with Brugia malayi [9], 1% with Brugia malayi [13] and 1% with Brugia malayi [17].
As to `COc1ccc(C(=O)/C=C/c2cc(/C=N/Nc3nc4ccccc4s3)cc(C(C)C)c2O)cc1OC`, in [1], the Ki came out at 50.6 µM.
Still for that read-out and setting: in the case of `CC(C)c1cc(/C=N/Nc2nc3ccccc3s2)cc(/C=C/C(=O)c2ccc(Cl)cc2)c1O` it was 22.8 µM; in that of `Cc1cc(/C=N/Nc2nc3ccccc3s2)cc(/C=C/C(=O)c2ccccc2)c1O`, 16.5 µM.
As for IVERMECTIN [listing 1 of 2 here], the results for the “Ratio CC50/IC50” value in data set [5] (vero) and in [6] (vero) were 29.5 and 13.28, respectively.
On to `CCCc1cc(/C=N/Nc2nc3ccccc3s2)cc(/C=C/C(=O)c2ccc(OC)c(OC)c2)c1O`, for which the Ki in [1] was determined as 27.1 µM.
In the case of `CCC(C)c1cc(/C=N/Nc2nc3ccccc3s2)cc(/C=C/C(=O)c2ccc(F)cc2)c1O` (stereo not drawn), the Ki in [1] was found to be 7.91 µM.
The same measure, in the same setting: in the case of `COc1ccc(C(=O)/C=C/c2cc(/C=N/Nc3nc4ccccc4s3)cc(C(C)C)c2O)cc1` it was 3.09 µM.
On the same count and under the same terms, in the case of `CC(C)(C)c1cc(/C=N/Nc2nc3ccccc3s2)cc(/C=C/C(=O)c2ccc(F)cc2)c1O` it was 3.17 µM; in that of `CC(C)c1cc(/C=N/Nc2nc3ccccc3s2)cc(/C=C/C(=O)c2ccc(F)cc2)c1O`, 21.6 µM.
For the molecule IVERMECTIN [listing 2 of 2 here], the MIC turned out to be 8.9 µM in the data set with Brugia malayi [2] and 10 µM in the data set with Brugia malayi [3]. Moreover, the inhibition in the data set on Brugia malayi [19] was 76%; with Brugia malayi [7], 62.9%; with Brugia malayi [8], 50.5%; in the data set with Brugia malayi [9], 34.9%; with Brugia malayi [22], 22.9%; in the data set with Brugia malayi [23], 10.7%. Moreover, the inhibition came to 15.7% in the data set on Brugia malayi [24]; 100% in the data set on Brugia malayi [20]; 100% in the data set with Brugia malayi [11]; 100% in the data set on Brugia malayi [12]; 100% in the data set with Brugia malayi [13]; 100% in the data set on Brugia malayi [25]. Moreover, the inhibition in the data set on Brugia malayi [26] was 50%; with Brugia malayi [27], 1%; in the data set with Brugia malayi [21], 100%; with Brugia malayi [15], 75%; in the data set on Brugia malayi [16] it was 75%; in the data set on Brugia malayi [17], 75%. Also, the figures for the inhibition with Brugia malayi [28], in the data set with Brugia malayi [29] and in the data set on Brugia malayi [30] were 50%, 0% and 0%, respectively.
With `CCc1cc(/C=N/Nc2nc3ccccc3s2)cc(/C=C/C(=O)c2ccc(OC)cc2)c1O`, the Ki in data set [1] stood at 30.4 µM.
The same measure, in the same setting: in the case of `CCCc1cc(/C=N/Nc2nc3ccccc3s2)cc(/C=C/C(=O)c2ccc(Cl)cc2)c1O` it was 26.6 µM.
The same measure, in the same setting: in the case of `CCC(C)c1cc(/C=N/Nc2nc3ccccc3s2)cc(/C=C/C(=O)c2ccc(OC)cc2)c1O` (stereo not drawn) it was 4.89 µM.
